Test results reported in ChEMBL document CHEMBL5715954, “Silencing c-Myc translation as a therapeutic strategy through targeting PI3Kδ and CK1ε in hematological malignancies” (Blood, 2017).
Calls of active or inactive are those of the source. The rule behind the calls is not given here.

Columns and labels:
mTORC1 (Homo sapiens) [1] = biological target: T1, mTORC1 (Homo sapiens) (UniProt P42345+Q8N122+Q9BVC4); experiment: Inhibition of mTORC1 in human LY7 cells assessed as reduction in c-Myc expression at 3 uM measured after 24 hrs in presence of bortezomib by Western blot analysis; type: cell-based
T1 sequence (Q8N122 whole entry, looked up, other chains not shown): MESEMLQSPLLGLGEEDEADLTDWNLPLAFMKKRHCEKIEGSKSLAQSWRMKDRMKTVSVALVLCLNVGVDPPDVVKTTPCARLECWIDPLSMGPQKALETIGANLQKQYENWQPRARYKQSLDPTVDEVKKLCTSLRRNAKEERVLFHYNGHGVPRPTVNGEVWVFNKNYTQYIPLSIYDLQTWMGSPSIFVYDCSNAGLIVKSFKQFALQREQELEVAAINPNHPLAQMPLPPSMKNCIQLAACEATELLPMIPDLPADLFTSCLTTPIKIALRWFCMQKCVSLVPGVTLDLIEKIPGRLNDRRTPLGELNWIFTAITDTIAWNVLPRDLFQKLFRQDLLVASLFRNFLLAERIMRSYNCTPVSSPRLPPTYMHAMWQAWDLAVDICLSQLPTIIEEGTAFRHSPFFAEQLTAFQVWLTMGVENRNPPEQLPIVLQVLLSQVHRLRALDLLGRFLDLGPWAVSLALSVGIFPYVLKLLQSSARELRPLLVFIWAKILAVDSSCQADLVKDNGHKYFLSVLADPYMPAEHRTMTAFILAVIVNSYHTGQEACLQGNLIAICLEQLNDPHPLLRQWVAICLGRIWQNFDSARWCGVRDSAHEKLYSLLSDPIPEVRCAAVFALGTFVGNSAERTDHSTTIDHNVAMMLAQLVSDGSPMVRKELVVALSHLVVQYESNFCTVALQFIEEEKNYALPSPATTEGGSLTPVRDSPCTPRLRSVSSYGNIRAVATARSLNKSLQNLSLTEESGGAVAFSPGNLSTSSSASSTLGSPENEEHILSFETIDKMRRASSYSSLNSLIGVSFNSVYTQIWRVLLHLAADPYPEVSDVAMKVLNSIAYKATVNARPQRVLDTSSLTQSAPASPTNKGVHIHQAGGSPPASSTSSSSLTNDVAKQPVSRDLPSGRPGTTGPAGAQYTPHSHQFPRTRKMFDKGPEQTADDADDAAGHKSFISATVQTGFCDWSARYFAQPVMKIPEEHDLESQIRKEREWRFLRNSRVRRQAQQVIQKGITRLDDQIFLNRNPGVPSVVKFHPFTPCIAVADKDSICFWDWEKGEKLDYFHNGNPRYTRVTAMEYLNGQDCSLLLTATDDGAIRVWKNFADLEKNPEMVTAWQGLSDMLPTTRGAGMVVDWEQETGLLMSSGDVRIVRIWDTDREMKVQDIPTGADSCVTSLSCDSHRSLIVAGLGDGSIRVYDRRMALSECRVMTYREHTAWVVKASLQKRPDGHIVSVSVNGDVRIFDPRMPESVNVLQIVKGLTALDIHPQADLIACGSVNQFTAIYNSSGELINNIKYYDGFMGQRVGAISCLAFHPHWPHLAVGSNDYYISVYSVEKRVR
T1 sequence (Q9BVC4 whole entry, looked up, other chains not shown): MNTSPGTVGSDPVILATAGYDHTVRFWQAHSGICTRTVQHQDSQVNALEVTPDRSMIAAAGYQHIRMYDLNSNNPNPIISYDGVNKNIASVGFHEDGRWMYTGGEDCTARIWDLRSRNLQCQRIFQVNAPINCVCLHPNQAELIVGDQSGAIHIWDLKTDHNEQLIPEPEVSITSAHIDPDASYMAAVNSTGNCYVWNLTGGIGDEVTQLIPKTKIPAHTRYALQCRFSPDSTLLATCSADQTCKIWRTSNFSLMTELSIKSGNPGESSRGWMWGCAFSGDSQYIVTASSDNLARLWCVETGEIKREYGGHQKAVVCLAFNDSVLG

CLL cell = experiment: Induction of apoptosis in human CLL cells assessed as increase in cleaved-PARP expression at 5 uM measured after 24 hrs in presence of bortezomib by Western blot analysis; type: functional, cell-based
SLL = experiment: Induction of apoptosis in human SLL cells assessed as increase in cleaved-PARP expression at 5 uM measured after 24 hrs in presence of bortezomib by Western blot analysis; type: functional, cell-based
OCI-Ly10 = experiment: Induction of apoptosis in human LY10 cells assessed as increase in caspase-3/7 activation at 1 to 3 uM measured after 24 hrs in presence of bortezomib; type: functional, cell-based; conditions: dose 1-3 µM
mTORC1 (Homo sapiens) [2] = biological target: T1, mTORC1 (Homo sapiens); experiment: Inhibition of mTORC1 in human LY7 cells assessed as reduction in c-Myc mRNA expression at 3 uM measured after 24 hrs in presence of bortezomib; type: cell-based
[3] = biological target: Myc proto-oncogene protein (Homo sapiens) (UniProt P01106); experiment: Inhibition of c-Myc in human LY10 cells assessed as reduction in eIF4B expression at 3 uM incubated for 24 hrs in presence of bortezomib by Western blot analysis; type: cell-based
Myc proto-oncogene protein (Homo sapiens), sequence (P01106 whole entry, canonical isoform): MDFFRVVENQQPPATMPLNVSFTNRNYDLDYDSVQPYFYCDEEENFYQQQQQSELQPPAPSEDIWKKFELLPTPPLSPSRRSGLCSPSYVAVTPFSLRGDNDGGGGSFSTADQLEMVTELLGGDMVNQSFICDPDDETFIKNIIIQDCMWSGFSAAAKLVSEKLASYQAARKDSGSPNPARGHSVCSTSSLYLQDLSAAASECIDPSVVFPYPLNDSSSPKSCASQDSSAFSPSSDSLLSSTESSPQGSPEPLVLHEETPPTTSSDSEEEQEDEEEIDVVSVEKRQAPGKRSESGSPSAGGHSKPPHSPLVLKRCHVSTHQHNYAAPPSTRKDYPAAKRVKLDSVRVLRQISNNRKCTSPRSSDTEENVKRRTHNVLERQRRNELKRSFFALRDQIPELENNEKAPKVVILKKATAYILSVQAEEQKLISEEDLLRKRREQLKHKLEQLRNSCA

[4] = biological target: Casein kinase I isoform epsilon (Homo sapiens, UniProt P49674); experiment: Inhibition of recombinant human full-length N-terminal GST-tagged CK1epsilon expressed in baculovirus infected Sf9 insect cells at 50 uM using casein as substrate measured after 60 mins by ADP-glo kinase assay relative to control
Casein kinase I isoform epsilon, sequence (P49674 whole entry, looked up, canonical isoform): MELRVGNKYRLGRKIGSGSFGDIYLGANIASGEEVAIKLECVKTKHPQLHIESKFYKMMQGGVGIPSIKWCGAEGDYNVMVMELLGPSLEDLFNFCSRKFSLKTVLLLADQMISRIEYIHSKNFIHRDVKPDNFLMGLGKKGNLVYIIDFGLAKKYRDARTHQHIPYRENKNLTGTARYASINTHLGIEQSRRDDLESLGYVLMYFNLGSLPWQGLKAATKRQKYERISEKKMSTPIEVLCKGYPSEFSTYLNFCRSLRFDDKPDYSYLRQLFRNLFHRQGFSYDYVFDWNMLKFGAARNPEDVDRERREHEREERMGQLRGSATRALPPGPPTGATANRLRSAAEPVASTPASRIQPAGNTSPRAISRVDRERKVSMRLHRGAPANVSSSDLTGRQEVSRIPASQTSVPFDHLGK

[5] = Cytotoxicity against human PBMC assessed as reduction in cell viability at 2.5 to 5 uM measured after 24 to 72 hrs in presence of carfilzomib by cell-titer glo assay; type: toxicity, cell-based; conditions: dose lower 2.5 µM, time lower 24 hrs, dose upper 5 µM, time upper 72 hrs
mTORC1 (Homo sapiens) [6] = biological target: T1, mTORC1 (Homo sapiens); experiment: Inhibition of mTORC1 in human NCI-H929 cells assessed as reduction in 4E-BP1 phosphorylation at 5 uM measured after 24 hrs by Western blot analysis; type: cell-based
mTORC1 (Homo sapiens) [7] = biological target: T1, mTORC1 (Homo sapiens); experiment: Inhibition of mTORC1 in human NCI-H929 cells assessed as reduction in c-Myc expression at 5 uM measured after 24 hrs in presence of carfilzomib by Western blot analysis; type: cell-based
mTORC1 (Homo sapiens) [8] = biological target: T1, mTORC1 (Homo sapiens); experiment: Inhibition of mTORC1 in human PF-382 cells assessed as reduction in 4E-BP1 phosphorylation at 5 uM measured after 24 hrs in presence of carfilzomib by Western blot analysis; type: cell-based
mTORC1 (Homo sapiens) [9] = biological target: T1, mTORC1 (Homo sapiens); experiment: Inhibition of mTORC1 in human SLL cells assessed as reduction in c-Myc expression at 5 uM measured after 24 hrs in presence of carfilzomib by Western blot analysis; type: cell-based
[10] = biological target: T2, Phosphatidylinositol 4,5-bisphosphate 3-kinase catalytic subunit delta isoform (Homo sapiens) (UniProt O00329); experiment: Inhibition of PI3Kdelta in human DB cells assessed as reduction in AKT phosphorylation at S473 residue measured after 4 hrs; type: cell-based; conditions: dose 10-10000 nM
T2 sequence (whole entry): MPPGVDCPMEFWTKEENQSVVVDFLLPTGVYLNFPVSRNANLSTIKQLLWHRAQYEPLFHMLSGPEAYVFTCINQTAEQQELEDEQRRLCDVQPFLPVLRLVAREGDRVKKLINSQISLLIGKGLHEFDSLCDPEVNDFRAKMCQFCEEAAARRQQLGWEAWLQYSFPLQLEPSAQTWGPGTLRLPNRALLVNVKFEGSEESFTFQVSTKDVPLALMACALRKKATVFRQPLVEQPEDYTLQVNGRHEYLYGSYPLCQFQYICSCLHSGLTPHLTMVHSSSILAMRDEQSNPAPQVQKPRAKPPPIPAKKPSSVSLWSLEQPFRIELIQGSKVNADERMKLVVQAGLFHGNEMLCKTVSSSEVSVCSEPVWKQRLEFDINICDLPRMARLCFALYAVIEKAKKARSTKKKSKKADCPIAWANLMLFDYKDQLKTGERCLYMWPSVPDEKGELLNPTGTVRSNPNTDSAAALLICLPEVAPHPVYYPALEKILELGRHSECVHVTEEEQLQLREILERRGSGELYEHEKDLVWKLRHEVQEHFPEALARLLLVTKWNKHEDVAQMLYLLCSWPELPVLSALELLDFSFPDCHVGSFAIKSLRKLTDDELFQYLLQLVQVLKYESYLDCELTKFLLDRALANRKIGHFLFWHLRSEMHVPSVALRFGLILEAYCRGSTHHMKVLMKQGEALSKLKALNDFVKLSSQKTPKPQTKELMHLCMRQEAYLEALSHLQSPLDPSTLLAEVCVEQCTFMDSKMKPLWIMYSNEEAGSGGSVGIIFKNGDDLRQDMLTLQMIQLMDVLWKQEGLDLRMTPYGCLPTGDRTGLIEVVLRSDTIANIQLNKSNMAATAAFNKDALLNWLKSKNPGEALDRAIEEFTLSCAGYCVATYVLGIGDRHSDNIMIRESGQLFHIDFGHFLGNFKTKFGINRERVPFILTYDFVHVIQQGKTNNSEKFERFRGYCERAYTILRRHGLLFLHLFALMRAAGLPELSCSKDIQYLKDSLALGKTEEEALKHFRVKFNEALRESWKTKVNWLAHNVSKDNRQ

[11] = biological target: T2, Phosphatidylinositol 4,5-bisphosphate 3-kinase catalytic subunit delta isoform (Homo sapiens); experiment: Inhibition of PI3Kdelta in human HL-60 cells assessed as reduction in AKT phosphorylation at S473 residue at 1 uM measured after 4 hrs relative to control; type: cell-based
[12] = biological target: T2, Phosphatidylinositol 4,5-bisphosphate 3-kinase catalytic subunit delta isoform (Homo sapiens); experiment: Inhibition of PI3Kdelta in human THP-1 cells assessed as reduction in AKT phosphorylation at S473 residue at 1 uM measured after 4 hrs relative to control; type: cell-based
[13] = biological target: T2, Phosphatidylinositol 4,5-bisphosphate 3-kinase catalytic subunit delta isoform (Homo sapiens); experiment: Inhibition of PI3Kdelta in human MOLT-4 cells assessed as reduction in AKT phosphorylation at S473 residue at 1 uM measured after 4 hrs relative to control; type: cell-based
OCI-Ly7 = experiment: Cytotoxicity against human OCILY7 cells transfected with c-Myc-expressing plasmid (M+) assessed as reduction in cell viability at 3 to 5 uM incubated for 24 hrs in presence of carfilzomib by cell-titer glo assay; type: functional, cell-based; conditions: dose 3-5 µM
LY7 [14] = experiment: Inhibition of PI3Kdelta/CK1epsilon in human LY7 cells assessed as reduction in c-Myc expression at 15 to 50 uM measured after 24 hrs by Western blot analysis; type: cell-based; conditions: dose 15-50 µM
OCILY7 = experiment: Inhibition of PI3Kdelta/CK1epsilon in human OCILY7 cells transfected with c-Myc-expressing plasmid (M+) assessed as reduction in c-Myc expression at 7.5 to 25 uM measured after 24 hrs by Western blot analysis; type: cell-based; conditions: dose 7.5-25 µM
LY7 [15] = experiment: Inhibition of PI3Kdelta/CK1epsilon in human LY7 cells assessed as reduction in 4E-BP1 phosphorylation at 25 uM incubated for 24 hrs by Western blot analysis; type: cell-based
LY7 [16] = experiment: Inhibition of PI3Kdelta/CK1epsilon in human LY7 cells assessed as reduction in c-Myc expression at 25 uM incubated for 24 hrs by Western blot analysis; type: cell-based

CC[C@H](Nc1ncnc2[nH]cnc12)c1nc2cccc(F)c2c(=O)n1-c1ccccc1
inhibition (mTORC1 (Homo sapiens) [1]): inactive | Activity (CLL cell): Active | Activity (SLL): Active | Activity (OCI-Ly10): Active | inhibition (mTORC1 (Homo sapiens) [2]): inactive | inhibition [3]: inactive | inhibition [4]: < 50%

CC(C)Oc1ccc(-c2nn([C@@H](C)c3oc4ccc(F)cc4c(=O)c3-c3cccc(F)c3)c3ncnc(N)c23)cc1F [UMBRALISIB]
Activity [5]: Non-Toxic | inhibition (mTORC1 (Homo sapiens) [6]): inactive | inhibition (mTORC1 (Homo sapiens) [7]): Active | inhibition (mTORC1 (Homo sapiens) [8]): Active | inhibition (mTORC1 (Homo sapiens) [9]): Active | inhibition [10]: Dose-Dependent Effect | inhibition [11]: 43% | inhibition [12]: 43% | inhibition [13]: 43% | Activity (OCI-Ly7): inactive | inhibition (LY7 [14]): Active | inhibition (OCILY7): inactive | inhibition (LY7 [15]): Active | inhibition (LY7 [16]): Active
